≈ marks a conversion by molar mass, not a printed value. Where “and” joins values, the source holds several entries; their conditions need not be identical. Identical values can stand only once.
Legend:
[1] = Dissolution test of Compound A (Test Example 1); type: physicochemical; settings: 0.03% ps20, pH 7; 0.03 wt% PS20 solution (phosphate buffer)
Method: (§1) ·Column: Meteoric Core C8, 5 µm, 4.6 mm×150 mm (YMC Co., Ltd.) ·Column temperature: 25°C ·Feeding amount: 1.0 mL/min. ·Wavelength: 254 nm ·Mobile phase A: water/TFA (1,000:1), Mobile phase B: acetonitrile/TFA (1,000:1) ·Feeding of mobile phase Table 1
1 Milligram of Compound A and 10 mL of a 6.55 mM phosphate buffer (pH: 7) containing 0 wt% to 0.03 wt% of polysorbate 20 (FUJIFILM Wako Pure Chemical Corporation, hereinafter referred to as "PS20") or an aqueous solution of NaH2PO4 (0.33 mg/mL) containing 0 wt% to 0.03 wt% of PS20 were loaded into a glass vial having a volume of 20 mL, and air inside the vial was purged with nitrogen. The vial was loaded into Aluminum Lamizip, and the vial was shaken overnight. The phosphate buffer was prepared by using NaH2PO4 and Na2HPO4. The mixture was filtered with a PVDF filter (Millex-GV, 0.22 µm, PVDF, 4 mm), and the solution after 10 drops of its initial flow was collected. Thus, solutions having formulations 1 to 8 were obtained. The concentrations of Compound A in the resultant solutions were calculated by the HPLC measurement of the solutions.

[2] = Reconstitution of lyophilized preparation of Compound A in physiological saline (Test Example 8); type: physicochemical
Method: as §1
Physiological saline (physiological salt solution "OTSUKA NORMAL SALINE") was added to a lyophilized preparation produced according to the same formulation as the formulation 32 except the concentration of Compound A in the lyophilization solution, and the preparation was dissolved in the saline so that a liquid amount was 5 mL. Thus, a reconstituted solution (liquid preparation) of Compound A was obtained. The concentration of Compound A in the reconstituted solution was calculated by HPLC measurement, and the content of Compound A was calculated. […]

With COCC(=O)N[C@@H](CC(C)C)C(=O)N[C@@H](CCSC)C(=O)Nc1ccc2c(c1)Oc1cc(N)ccc1C21OCc2ccccc21 (some centres unmarked) [Compound A] the solubility [1] was 12.4 µg/mL (≈ 19.6 µM), the “measured value of the concentration of Compound A” value ([2]; lyophilization solution used in the production of the lyophilized preparation (same formulation as formulation 32 except Compound A concentration)) was 149.2 µg/mL and the “appearance of the reconstituted solution” value ([2]; lyophilized preparation dissolved in physiological saline, 5 mL) was “clear and free of visible particles”. The “Final concentration of Compound A” value ([2]; reconstituted solution, 5 mL physiological saline, lyophilized preparation as formulation 32 except Compound A concentration) was 29.9 µg/mL and 47.2 µM and the “Content of Compound A (%)” value ([2]; reconstituted solution, 5 mL physiological saline, ratio to content in lyophilization solution) was 100.1%.
